Measurements reported in article PMC6934184, “Selective DNA-PKcs inhibition extends the therapeutic index of localized radiotherapy and chemotherapy” (The Journal of Clinical Investigation, 2019).

Target: T1, CDK9/cyclin K (Homo sapiens, UniProt P50750)
T1 construct: purchased Thermo Fisher Scientific (Life Technologies) SelectScreen
Experiment: SelectScreen LanthaScreen
Type: binding
Conditions: read-out: % displacement
In short: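 Percent values come from Thermo SelectScreen profiling of NU5455, combining activity and binding assays. CSF1R was run in Z'LYTE format at Km app ATP, and CAMK1 in Adapta format with ATP listed at 10.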

T1 sequence (P50750 whole entry): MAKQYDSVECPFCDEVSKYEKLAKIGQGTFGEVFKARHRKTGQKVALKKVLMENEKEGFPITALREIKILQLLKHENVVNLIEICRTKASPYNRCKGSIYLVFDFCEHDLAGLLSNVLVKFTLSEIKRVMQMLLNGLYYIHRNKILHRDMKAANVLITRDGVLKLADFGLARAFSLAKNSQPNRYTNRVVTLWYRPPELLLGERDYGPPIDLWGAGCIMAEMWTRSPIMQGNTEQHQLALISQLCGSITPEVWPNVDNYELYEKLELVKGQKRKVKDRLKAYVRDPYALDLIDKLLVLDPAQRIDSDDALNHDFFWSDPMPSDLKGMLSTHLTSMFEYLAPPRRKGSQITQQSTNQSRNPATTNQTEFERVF
T1 sequence (O75909 whole entry partner): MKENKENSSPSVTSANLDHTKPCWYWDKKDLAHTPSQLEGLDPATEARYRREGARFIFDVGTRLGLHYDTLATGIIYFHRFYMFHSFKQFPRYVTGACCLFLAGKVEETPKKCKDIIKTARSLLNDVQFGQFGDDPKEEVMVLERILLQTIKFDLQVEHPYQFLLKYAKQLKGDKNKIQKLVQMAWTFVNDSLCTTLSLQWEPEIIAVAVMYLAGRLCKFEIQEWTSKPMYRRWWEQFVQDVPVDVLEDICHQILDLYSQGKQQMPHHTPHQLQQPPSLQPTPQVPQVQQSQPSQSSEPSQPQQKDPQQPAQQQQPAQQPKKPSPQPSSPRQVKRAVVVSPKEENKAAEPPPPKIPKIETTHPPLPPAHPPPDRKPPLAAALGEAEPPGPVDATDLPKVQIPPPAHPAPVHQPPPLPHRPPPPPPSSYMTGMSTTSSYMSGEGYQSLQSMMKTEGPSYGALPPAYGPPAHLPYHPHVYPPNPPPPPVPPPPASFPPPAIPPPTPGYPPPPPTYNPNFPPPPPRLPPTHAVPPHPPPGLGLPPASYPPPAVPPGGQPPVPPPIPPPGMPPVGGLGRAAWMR

CN(C(=O)CN1CCOCC1)c1ccc2sc3c(-c4cccc5c(=O)cc(N6CC7CCC(C6)O7)oc45)cccc3c2c1 [NU5455]
inhibition at 1 µM: 1%
